In the NIST ThermoML archive (doi:10.1016/j.jct.2018.07.006):
“And” between values parts separate entries of the source, which are not always exact repeats. Identical values can stand only once.

Assay: mn = molality of the nth substance listed, in mol/kg
Conditions: 100 kPa, Liquid; for speed of sound: Frequency=3 MHz, Single path-length method; for mass density: Vibrating tube method

CC(C)(CO)[C@@H](O)C(=O)NCCCO [d-Panthenol] + O
Conditions	mass density, 293.15 K [kg/m3]	mass density, 298.15 K	mass density, 303.15 K [kg/m3]	mass density, 308.15 K [kg/m3]	speed of sound, 293.15 K [m/s]	speed of sound, 298.15 K [m/s]	speed of sound, 303.15 K	speed of sound, 308.15 K [m/s]
m1 = 0.05	999.509	998.191 kg/m3	996.926	995.295	1489.4	1503	1515.5 m/s and 1516 m/s	1525.2
m1 = 0.1	1001.62	1000.22 kg/m3	998.987	997.338	1494.1	1507.6	1519.5 m/s and 1517.9 m/s	1529.1
m1 = 0.15	1003.34	1002.12 kg/m3 and 1002.09 kg/m3	1000.58	998.985	1498.5	1511.6	1522.9 m/s	1532.5
